17 compounds from patent publication US9504675B2, “Alpha-ketoheterocycles and methods of making and using” (The Scripps Research Institute, priority 2011, dated 2016) can be followed below.

Read-outs that look alike come from different tables or passages of the source.

Assay [1] concerns endogenous levels of FAAH substrates AEA, PEA, OEA and of 2-AG, AA. The assay is described as follows: In vivo pharmacodynamic studies: brain and liver lipid levels after inhibitor treatment (LC-MS). The following applies: Table 6, 30 mg/kg i.p., 1 h, single mouse; for Brain 2-AG (fold increase) / Brain AA (fold increase) / Brain AEA (fold increase) / Brain PEA (fold increase): vs vehicle. Set-up: species or system mouse (C57BL/6J).
Protocol: This includes monitoring the effects of the inhibitors on the endogenous levels of the FAAH substrates anandamide (AEA, N-arachidonoyl ethanolamine), N-oleoyl ethanolamine (OEA), and N-palmitoyl ethanolamine (PEA), as well as the key lipids 2-arachidonoylglycerol (2-AG) and arachidonic acid (AA) that are not endogenous substrates for FAAH.
Inhibitors were prepared as a saline-emulphor emulsion for intraperitoneal (i.p.) administration by vortexing, sonicating, and gently heating neat compound directly into an 18:1:1 v/v/v solution of saline:ethanol:emulphor, or as a homogeneous PEG solution for oral administration (p.o.) by vortexing, sonicating, and gently heating neat compound directly into PEG300 (Fluka). Male C57BL/6J mice (<6 months old, 20-28 g) were administered inhibitors in saline-emulphor emulsion or an 18:1:1 v/v/v saline:emulphor:ethanol vehicle i.p. at a volume of 10 μL/g weight, or alternatively inhibitors in PEG300 or a PEG300 vehicle p.o. at a volume of 4 μL/g weight. After the indicated amount of time, mice were anesthetized with isofluorane and killed by decapitation. Total brains (˜400 mg) and a portion of the liver (˜100 mg) were removed and flash frozen in liquid N2.
Tissue was weighed and subsequently Dounce homogenized in 2:1:1 v/v/v CHCl3:MeOH:Tris pH 8.0 (8 mL) containing standards for lipids (50 pmol d4-PEA, 2 pmol d4-AEA, 0.5 nmol ds-2-AG, and 10 nmol pentadecanoic acid). The mixture was vortexed and then centrifuged (1,400×g, 10 min). The organic layer was removed, dried under a stream of N2, resolubilized in 2:1 v/v CHCl3:MeOH (120 μL), and 10 μL of this resolubilized lipid was injected onto an Agilent G6410B QQQ instrument. […] Mobile phase A was composed of a 95:5 v/v H2O:MeOH, and mobile phase B was composed of a 65:35:5 v/v/v i-PrOH:MeOH:H2O. 0.1% Formic acid or 0.1% ammonium hydroxide was included to assist in ion formation in positive and negative ionization mode, respectively. The flow rate for each run started at 0.1 mL/min with 0% B. At 5 min, the solvent was immediately changed to 60% B with a flow rate of 0.4 mL/min and increased linearly to 100% B over 10 min. […] MS analysis was performed with an electrospray ionization (ESI) source. […] For negative polarity, the analysis was performed in MS2 scan mode from 100-1000 m/z. The capillary was set to 4 kV, the fragmentor was set to 100 V, and the delta EMV was set to 0. Lipids were quantified by measuring the area under the peak in comparison to the standards.

Assay [2] has as its system mice, acute thermal pain (tail flick at 52° C.). In words: Mouse tail flick assay (52° C. warm water), acute thermal pain. It counts as in vivo, mouse (CD-1). The following applies: i.v. administration. As for the experimental part:
Concurrent with these studies, two prototypical inhibitors 12 and 14 were examined for antinociceptive activity in a preclinical model of acute thermal pain (tail flick at 52° C.) in mice alongside 2 and morphine (i.v. administration).
Male CD-1 (25-35 g, Charles River) mice were housed in groups of five in Plexiglas chambers with food and water available ad libitum. All animals were maintained on a 12 h light/dark cycle (lights on at 7:00 AM) in a temperature- and humidity-controlled animal colony. All tail-flick experiments were performed under an approved University of New England animal protocol in accordance with institutional guidelines and in accordance with the Guide for the Care and Use of Laboratory Animals as adopted and promulgated by the National Institutes of Health. Efficacy of the test compound was assessed using the 52° C. warm water tail-flick test. The latency to the first sign of a rapid tail-flick was taken as the behavioral endpoint. Each mouse was first tested for baseline latency by immersing its tail in the water and recording the time to response. Mice not responding within 5 sec were excluded from further testing. Mice were then administered the test compound and tested for antinociception at various time points afterwards. Antinociception was calculated by the following formula: % Antinociception=100×(test latency−control latency)/(10−control latency). A maximum score was assigned (100%) to animals not responding within 10 sec to avoid tissue damage.
A general note: Hot-plate and tail-flick tests time the reaction to a heat stimulus.

The target in assay [3] is T1, recombinant rat FAAH (rFAAH) (Rattus norvegicus, UniProt P97612).
T1 construct: The truncated rat FAAH (rFAAH) was expressed in E. coli and purified; made in house; host or cells: Escherichia coli
T1 sequence (P97612 30-579 limits assumed): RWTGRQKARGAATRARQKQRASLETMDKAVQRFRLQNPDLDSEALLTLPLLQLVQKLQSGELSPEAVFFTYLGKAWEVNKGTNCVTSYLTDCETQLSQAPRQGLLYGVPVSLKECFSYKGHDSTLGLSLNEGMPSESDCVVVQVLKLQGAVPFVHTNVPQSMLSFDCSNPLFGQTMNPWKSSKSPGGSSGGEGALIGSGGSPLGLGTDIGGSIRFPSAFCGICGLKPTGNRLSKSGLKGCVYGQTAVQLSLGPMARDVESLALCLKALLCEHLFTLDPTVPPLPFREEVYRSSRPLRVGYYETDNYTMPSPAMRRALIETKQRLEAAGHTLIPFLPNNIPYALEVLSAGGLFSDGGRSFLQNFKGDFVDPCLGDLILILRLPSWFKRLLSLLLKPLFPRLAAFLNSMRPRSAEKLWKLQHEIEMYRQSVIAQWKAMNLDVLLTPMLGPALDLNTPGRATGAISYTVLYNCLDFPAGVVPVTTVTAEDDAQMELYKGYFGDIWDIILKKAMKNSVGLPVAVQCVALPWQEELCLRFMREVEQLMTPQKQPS
In words: Enzyme assay: inhibition of purified recombinant rat FAAH, 14C-oleamide hydrolysis, Ki by Dixon plot. Type of assay: biochemical. As for the experimental part: Enzyme assays were performed at 20-23° C. with purified recombinant rat FAAH expressed in Escherichia coli or with solubilized COS-7 membrane extracts from cells transiently transfected with human FAAH cDNA (where specifically indicated) in a buffer of 125 mM Tris/1 mM EDTA/0.2% glycerol/0.02% Triton X-100/0.4 mM Hepes, pH 9.0.
^14C-labeled oleamide was prepared from ^14C-labeled oleic acid. The truncated rat FAAH (rFAAH) was expressed in E. coli and purified. The purified recombinant rFAAH was used in the inhibition assays unless otherwise indicated. The full-length human FAAH (hFAAH) was expressed in COS-7 cells as described, and the lysate of hFAAH-transfected COS-7 cells was used in the inhibition assays where explicitly indicated.
The inhibition assays were performed as follows. […] The enzyme reaction was terminated by transferring 20 μL of the reaction mixture to 500 μL of 0.1 N HCl at three different time points. The ^14C-labeled oleamide (substrate) and oleic acid (product) were extracted with EtOAc and analyzed by TLC as detailed. The Ki of the inhibitor was calculated using a Dixon plot as described (standard deviations are provided in the Supporting Information tables).

[4] abbreviates: Ki, Table 2, (S)-enantiomer, 1,2,3,4-tetrahydronaphthalene C2 acyl side chain.
The mark [5] stands for this setting: Ki, Table 4, (R)-enantiomer, additional FAAH inhibitors.
The mark [6] stands for this setting: Ki, Table 3, tentatively assigned (S)-enantiomer, indane C2 acyl side chain.

As for `O=C(O)c1cccc(-c2cnc(C(=O)C3Cc4ccc(Oc5ccccc5)cc4C3)o2)n1` (stereo not drawn) [Compound 29, 6-(2-(5-Phenoxyindane-2-carbonyl)oxazol-5-yl)picolinic acid], in assay [1], the “Brain 2-AG” value was 12 pmol/g, the “Brain AA” value is 172 pmol/g, the “Brain AEA” value was 8 pmol/g and the “Brain PEA” value is recorded as 131 pmol/g. Besides, in assay [1], the “Brain 2-AG (fold increase)” value came out at 0.9 fold increase, the “Brain AA (fold increase)” value is 0.8 fold increase, the “Brain AEA (fold increase)” value is 1.0 fold increase and the “Brain PEA (fold increase)” value came to 1.2 fold increase.

On to `CN1CC[C@]23c4c5ccc(O)c4O[C@H]2[C@@H](O)C=C[C@H]3[C@H]1C5` [morphine, reference compound], for which the “duration of antinociceptive effect” value in assay [2] stood at 150 min.

Regarding `O=C(c1ncc(-c2ccccn2)o1)C1Cc2ccc(Oc3ccccc3)cc2C1` (stereo not drawn) [Compound 27, (5-Phenoxyindan-2-yl)(5-(pyridin-2-yl)oxazol-2-yl)methanone], in assay [1], the “Brain 2-AG” value is 11 pmol/g, the “Brain AA” value came out at 190 pmol/g, the “Brain AEA” value came out at 24 pmol/g and the “Brain PEA” value was 800 pmol/g. Besides, in assay [1], the “Brain 2-AG (fold increase)” value amounted to 0.8 fold increase, the “Brain AA (fold increase)” value is given as 0.9 fold increase, the “Brain AEA (fold increase)” value is 3.0 fold increase and the “Brain PEA (fold increase)” value is 7.4 fold increase. Broadly, the Ki is the dissociation constant of the complex between target and ligand, obtained from inhibition or displacement. Take `COC(=O)c1cccc(-c2cnc(C(=O)C3Cc4ccc(-c5ccccc5)cc4C3)o2)n1` (racemic) [Compound 24, Methyl 6-[2-(5-Phenylindane-2-carbonyl)oxazol-5-yl]pyridine-2-carboxylate]: the inhibition constant Ki in assay [3] (Ki, Table 3, racemate (enantiomers not separable), indane C2 acyl side chain) came to 6.2 nM. As for `O=C(O)c1cccc(-c2cnc(C(=O)C3CCc4cc(OCc5ccccc5)ccc4C3)o2)n1` (single isomer, unassigned) [(S)-20, 6-(2-(6-(Benzyloxy)-1,2,3,4-tetrahydronaphthalene-2-carbonyl)oxazol-5-yl)picolinic acid], the Ki in assay [3] (setting [4]) was determined as 34 nM. Consider `O=C(c1ncc(-c2ccccn2)o1)C1CCc2ccccc2C1` (single isomer, unassigned) [(R)-38, (5-(Pyridin-2-yl)oxazol-2-yl)(1,2,3,4-tetrahydronaphthalen-2-yl)methanone], for which the Ki in assay [3] (setting [5]) worked out at 3200 nM. `N#Cc1cnc(C(=O)C2CCc3cc(OCc4ccccc4)ccc3C2)o1` (single isomer, unassigned) [(S)-17, 2-(6-(Benzyloxy)-1,2,3,4-tetrahydronaphthalene-2-carbonyl)oxazole-5-carbonitrile]: the inhibition constant (Ki) in assay [3] (setting [4]) amounted to 3.2 nM. `O=C(c1ncc(-c2ccccn2)o1)C1Cc2ccc(-c3ccccc3)cc2C1` (single isomer, unassigned) [(S)-23, (5-Phenylindan-2-yl)-(5-(pyridin-2-yl)oxazol-2-yl)methanone]: the Ki in assay [3] (setting [6]) is 1.9 nM.

On to `O=C(c1ncco1)C1CCc2ccccc2C1` (single isomer, unassigned) [(R)-37, Oxazol-2-yl(1,2,3,4-tetrahydronaphthalen-2-yl)methanone], for which the Ki in assay [3] (setting [5]) is 12000 nM. With `O=C(c1ncc(-c2ccccn2)o1)C1CCc2ccccc2C1` (stereo not drawn) [Compound 38, (5-(Pyridin-2-yl)oxazol-2-yl)(1,2,3,4-tetrahydronaphthalen-2-yl)methanone], in assay [3], the “Ki relative to the FAAH inhibitor lacking the conformational constraints (Ki=200 nM)” value came to 2 fold. Further, the inhibitory constant (Ki) in assay [3] (Ki) was found to be 430 nM. For the compound `N#Cc1cnc(C(=O)C2CCc3cc(Oc4ccccc4)ccc3C2)o1` (single isomer, unassigned) [(R)-11, 2-(6-Phenoxy-1,2,3,4-tetrahydronaphthalene-2-carbonyl)oxazole-5-carbonitrile], the Ki in assay [3] (Ki, Table 2, (R)-enantiomer, 1,2,3,4-tetrahydronaphthalene C2 acyl side chain) amounted to 54 nM. Consider `O=C(c1ncc(-c2ccccn2)o1)C1Cc2ccccc2C1` [Compound 40, (Indan-2-yl)(5-(pyridin-2-yl)oxazol-2-yl)methanone], for which the “Ki relative to the FAAH inhibitor lacking the conformational constraints (Ki=200 nM)” value in assay [3] is reported as 5 fold. The Ki in assay [3] (read-out: Ki) worked out at 1100 nM. As to `O=C(c1ncco1)C1Cc2ccccc2C1` [Compound 39, (Indan-2-yl)(oxazol-2-yl)methanone], the inhibition constant Ki in assay [3] (Table 4, meso indane derivatives without aryl substituent, read-out: Ki) worked out at 7100 nM. As for `O=C(O)c1cccc(-c2cnc(C(=O)C3Cc4ccc(Oc5ccccc5)cc4C3)o2)n1` (single isomer, unassigned) [(R)-29, 6-(2-(5-Phenoxyindane-2-carbonyl)oxazol-5-yl)picolinic acid], the Ki in assay [3] (Ki, Table 3, (R)-enantiomer, indane C2 acyl side chain) was 550 nM. On to `COC(=O)c1cccc(-c2cnc(C(=O)C3CCc4cc(OCc5ccccc5)ccc4C3)o2)n1` (single isomer, unassigned) [(S)-19, Methyl 6-(2-(6-(Benzyloxy)-1,2,3,4-tetrahydronaphthalene-2-carbonyl)oxazol-5-yl)picolinate], for which the Ki in assay [3] (setting [4]) came out at 18 nM. As to `COC(=O)c1nnc(C(=O)C2CCc3cc(Oc4ccccc4)ccc3C2)o1` (single isomer, unassigned) [(R)-35, Methyl 5-(6-Phenoxy-1,2,3,4-tetrahydronaphthalene-2-carbonyl)-[1,3,4]oxadiazole-2-carboxylate], the Ki in assay [3] (setting [5]) was 1.6 nM. As to `O=C(c1ncc(-c2ccccn2)o1)C1Cc2ccc(OCc3ccccc3)cc2C1` (single isomer, unassigned) [(S)-31, (5-(Benzyloxy)indan-2-yl)(5-(pyridin-2-yl)oxazol-2-yl)methanone], the Ki in assay [3] (setting [6]) stood at 1.4 nM.
